{"source": "paper PMC3629230", "about": "“Permeability Enhancers Dramatically Increase Zanamivir Absolute Bioavailability in Rats: Implications for an Orally Bioavailable Influenza Treatment” (PLoS ONE, 2013)", "key": {"[1]": {"assay": "Pharmacokinetics and absolute bioavailability after intraduodenal administration in rats", "conditions": "for Cmax / Tmax / AUC(0-t) / AUC(0-inf) / half-life / bioavailability: male, Sprague-Dawley, rat, plasma; for AUC(0-t): AUClast; for half-life: t1/2, intraduodenal; for bioavailability: other: intraduodenal, absolute, vs 1.5 mg intravenous", "description": "Male Sprague-Dawley rats (Hilltop Labs, Scottdale, PA), 3 animals per treatment group, 250–350 grams in weight, were fitted with a jugular vein cannula (JVC). Animals intended for intraduodenal dosing were also fitted with one or more intraduodenal cannula (IDC) and those intended for intravenous dosing were fitted with a second JVC. Food was withheld from the animals for a minimum of twelve hours prior to test article administration and was returned approximately four hours post-dose. Water was supplied ad libitum.\nIntraduodenal doses composed of 1.5 mg of zanamivir and varying amounts of an enhancer (glycerol or Capmul MCM L8) were injected directly into the duodenum via the IDC. To determine absolute bioavailability of the intraduodenal administered drug, intravenous dosing was conducted by the injection of 1.5 mg of zanamivir in 200 µL of PBS through a JVC. For some experiments, the absorption enhancer was administered intraduodenally 2 hr prior to administering 1.5 mg of zanamivir in PBS through a second IDC. Each intraduodenal dose was followed with the introduction of a small air bubble (∼10 µL) in the cannula followed by a flush of 125 µL of PBS to ensure the dose was given in full. The volume of PBS used for cannula flush was consistent across the treatment groups. The cannula was tied to prevent the PBS remaining in the cannula from entering the duodenum.\nBlood samples collected via the JVC, approximately 400 µL each, were obtained at 2 min, 5 min, 15 min, 30 min, 60 min, 90 min, and 120 min, with sodium heparin used as an anti-coagulant. Each sample was placed into a chilled tube containing the anticoagulant and kept on ice until centrifugation at 4°C, 3,000× g, for 5 min. The plasma supernatants were stored at −70°C until LC-MS analysis.\nDosing solution samples were assayed by liquid chromatography-mass spectrometry (LC-MS/MS) using electrospray ionization. The chromatographic system consisted of Perkin Elmer series 200 micropumps and autosampler equipped with a Waters Atlantic® HILIC Silica […], 2.1×50 mm column. The mass spectrometer was a PE Sciex API 4000 with electrospray interface in multiple reaction monitoring mode. […] Stock solutions (1 mg/mL zanamivir) were prepared in water. Standards (eight concentrations) were prepared in the appropriate matched matrix (HBSSg or Sprague-Dawley rat plasma containing sodium heparin) and diluted 50-fold with methanol. Experimental samples were identically treated."}, "[2]": {"conditions": "cited from earlier work"}, "[3]": {"tested_on": "Caco-2 cell monolayers", "assay": "Unidirectional (A-to-B) permeability of zanamivir across Caco-2 cell monolayers with and without excipients", "type": "in vitro ADME", "conditions": "A-to-B, zanamivir 15 µg/mL", "protocol": "Caco-2 cells were obtained from American Type Culture Collection (Rockville, MD). Stock cultures were maintained in flasks with DMEM medium supplemented with 10% FBS, 1% non-essential amino acids, 1 mmol/L sodium pyruvate, 100 IU/mL penicillin, and 100 µg/mL streptomycin in a humidified incubator (37°C, 5% CO2). Cells were harvested by trypsinization and seeded at 60,000 cells/cm^2 onto Costar Transwell® 12-well dual-chamber plates with collagen-coated, microporous polycarbonate membranes (1.13 cm^2 insert area, 0.4 µm pore size; Corning Life Sciences, Acton, MA) for permeability studies. The culture medium was changed three times per week.\nCaco-2 cell monolayers that had grown for at least 20 days were subjected to batch quality control testing in which permeation rates were measured for atenolol, digoxin, estrone-3-sulfate, lucifer yellow (LY), and propranolol. In addition, the transepithelial electrical resistance (TEER) across each experimental monolayer was tested prior to an experiment.\nUnidirectional (A-to-B) permeability of zanamivir was determined at 15 µg/mL in the absence and presence of varying concentrations of excipients in Caco-2 cell monolayers. The assay buffer was Hanks' balanced salt solution (HBSS) supplemented with 10 mM 4-(2-hydroxyethyl)-1-piperazineethanesulfonic acid (HEPES) and 15 mM D-glucose (HBSSg), pH 7.4. The dosing solutions on the apical side (0.5 mL) contained either zanamivir and excipients at each concentration being tested or zanamivir only (n = 4), while the receiver buffer in the bottom well (1.5 mL) was always excipient-free. The Caco-2 cell monolayers were incubated for 120 min in a humidified incubator (37°C, 5% CO2) after dosing in the apical chambers. Aliquots (200 µL each) of receiver buffer were sampled at 60 min, 90 min, and 120 min after dosing, with replacement by the same volume of blank buffer (at 60 min and 90 min). Donors were sampled at 0 and 120 min.\nExperimental samples were identically treated."}, "[4]": {"conditions": "intraduodenal, 1.5 mg/animal in PBS, Capmul MCM L8 given 2 hr prior"}, "[5]": {"conditions": "intraduodenal, 1.5 mg/animal in PBS, glycerol given 2 hr prior"}, "[6]": {"conditions": "intraduodenal, 1.5 mg/animal, 50 µL vehicle Capmul MCM L8"}, "[7]": {"conditions": "intraduodenal, 1.5 mg/animal, 50 µL vehicle PBS"}, "[8]": {"conditions": "intraduodenal, 1.5 mg/animal, 50 µL vehicle glycerol"}, "[9]": {"conditions": "0.75 mg, Figure 5 experiment, intraduodenal, 0.75 mg zanamivir, 50 µL Capmul MCM L8"}, "[10]": {"conditions": "1.5 mg, intraduodenal, 1.5 mg/animal in PBS, Capmul MCM L8 given 2 hr prior"}, "[11]": {"conditions": "1.5 mg, intraduodenal, 1.5 mg/animal in PBS, glycerol given 2 hr prior"}, "[12]": {"conditions": "1.5 mg, intraduodenal, 1.5 mg/animal, 50 µL vehicle Capmul MCM L8"}, "[13]": {"conditions": "1.5 mg, intraduodenal, 1.5 mg/animal, 50 µL vehicle PBS"}, "[14]": {"conditions": "1.5 mg, intraduodenal, 1.5 mg/animal, 50 µL vehicle glycerol"}, "[15]": {"conditions": "1.5 mg, Figure 5 experiment, intraduodenal, 1.5 mg zanamivir, 50 µL Capmul MCM L8"}, "[16]": {"conditions": "3 mg, Figure 5 experiment, intraduodenal, 3.0 mg zanamivir, 50 µL Capmul MCM L8"}}, "note": "Where “and” joins values, the source holds several entries; their conditions need not be identical. Equal entries are not always repeated. Entries after “also recorded” stand apart in the source; their conditions may differ."}
{"smiles": "CC(=O)N[C@H]1[C@H]([C@H](O)[C@H](O)CO)OC(C(=O)O)=C[C@@H]1N=C(N)N", "note": "[Zanamivir, zanamivir]", "values": [{"measurement": "Absolute bioavailability relative to negative control", "setting": "[1]; both enhancers (glycerol, Capmul MCM L8) given 2 hr prior to zanamivir", "result": "equivalent to that of the negative control"}, {"measurement": "Absorption enhancement", "setting": "[1]; enhancer (glycerol or Capmul MCM L8) given intraduodenally 2 hr prior to 1.5 mg zanamivir in PBS", "result": "No absorption enhancement; also recorded: no enhanced absorption"}, {"measurement": "Increase of absolute bioavailability compared to PBS", "setting": "[1]; intraduodenal, 1.5 mg zanamivir in 50 µL glycerol", "result": 4.7, "unit": "fold"}, {"measurement": "Dose-normalized AUClast", "setting": "[1]; [4]", "result": 12.7, "unit": "kg·ng·h/mL/mg"}, {"measurement": "Dose-normalized AUC∞", "setting": "[1]; [4]", "result": 13, "unit": "kg·ng·h/mL/mg"}, {"measurement": "Dose-normalized AUClast", "setting": "[1]; [5]", "result": 21.1, "unit": "kg·ng·h/mL/mg"}, {"measurement": "Dose-normalized AUC∞", "setting": "[1]; [5]", "result": 29.1, "unit": "kg·ng·h/mL/mg"}, {"measurement": "Dose-normalized AUClast", "setting": "[1]; [6]", "result": 715, "unit": "kg·ng·h/mL/mg"}, {"measurement": "Dose-normalized AUC∞", "setting": "[1]; [6]", "result": 753, "unit": "kg·ng·h/mL/mg"}, {"measurement": "Dose-normalized AUClast", "setting": "[1]; [7]", "result": 30.6, "unit": "kg·ng·h/mL/mg"}, {"measurement": "Dose-normalized AUC∞", "setting": "[1]; [7]", "result": 46.6, "unit": "kg·ng·h/mL/mg"}, {"measurement": "Dose-normalized AUClast", "setting": "[1]; [8]", "result": 145, "unit": "kg·ng·h/mL/mg"}, {"measurement": "Dose-normalized AUC∞", "setting": "[1]; [8]", "result": 153, "unit": "kg·ng·h/mL/mg"}, {"measurement": "Cmax", "setting": "[1]; [9]", "result": 1430, "unit": "ng/mL"}, {"measurement": "Tmax", "setting": "[1]; [9]", "result": 4.8, "unit": "min"}, {"measurement": "AUC(0-t)", "setting": "[1]; [10]", "result": 66.1, "unit": "ng·h/mL"}, {"measurement": "AUC(0-t)", "setting": "[1]; [11]", "result": 112, "unit": "ng·h/mL"}, {"measurement": "AUC(0-t)", "setting": "[1]; [12]", "result": 3800, "unit": "ng·h/mL"}, {"measurement": "AUC(0-t)", "setting": "[1]; [13]", "result": 162, "unit": "ng·h/mL"}, {"measurement": "AUC(0-t)", "setting": "[1]; [14]", "result": 754, "unit": "ng·h/mL"}, {"measurement": "AUC(0-inf)", "setting": "[1]; [10]", "result": 69.8, "unit": "ng·h/mL"}, {"measurement": "AUC(0-inf)", "setting": "[1]; [11]", "result": 156, "unit": "ng·h/mL"}, {"measurement": "AUC(0-inf)", "setting": "[1]; [12]", "result": 4000, "unit": "ng·h/mL"}, {"measurement": "AUC(0-inf)", "setting": "[1]; [13]", "result": 244, "unit": "ng·h/mL"}, {"measurement": "AUC(0-inf)", "setting": "[1]; [14]", "result": 781, "unit": "ng·h/mL"}, {"measurement": "Cmax", "setting": "[1]; 1.5 mg, Figure 4 experiment, intraduodenal, 1.5 mg zanamivir, 25 µL Capmul MCM L8", "result": 1650, "unit": "ng/mL"}, {"measurement": "Cmax", "setting": "[1]; 1.5 mg, Figure 4 experiment, intraduodenal, 1.5 mg zanamivir, 50 µL Capmul MCM L8", "result": 2120, "unit": "ng/mL"}, {"measurement": "Cmax", "setting": "[1]; 1.5 mg, Figure 4 experiment, intraduodenal, 1.5 mg zanamivir, 75 µL Capmul MCM L8", "result": 2570, "unit": "ng/mL"}, {"measurement": "Cmax", "setting": "[1]; [15]", "result": 3920, "unit": "ng/mL"}, {"measurement": "Cmax", "setting": "[1]; [10]", "result": 48.6, "unit": "ng/mL"}, {"measurement": "Cmax", "setting": "[1]; [11]", "result": 77.4, "unit": "ng/mL"}, {"measurement": "Cmax", "setting": "[1]; [12]", "result": 7230, "unit": "ng/mL"}, {"measurement": "Cmax", "setting": "[1]; [13]", "result": 134, "unit": "ng/mL"}, {"measurement": "Cmax", "setting": "[1]; [14]", "result": 948, "unit": "ng/mL"}, {"measurement": "half-life", "setting": "[1]; 1.5 mg, 1.5 mg/animal in PBS, Capmul MCM L8 given 2 hr prior", "result": 51.6, "unit": "min"}, {"measurement": "half-life", "setting": "[1]; 1.5 mg, 1.5 mg/animal in PBS, glycerol given 2 hr prior", "result": 74.4, "unit": "min"}, {"measurement": "half-life", "setting": "[1]; 1.5 mg, 1.5 mg/animal, 50 µL vehicle Capmul MCM L8", "result": 29.4, "unit": "min"}, {"measurement": "half-life", "setting": "[1]; 1.5 mg, 1.5 mg/animal, 50 µL vehicle PBS", "result": 49.8, "unit": "min"}, {"measurement": "half-life", "setting": "[1]; 1.5 mg, 1.5 mg/animal, 50 µL vehicle glycerol", "result": 17.4, "unit": "min"}, {"measurement": "Tmax", "setting": "[1]; [15]", "result": 4.8, "unit": "min"}, {"measurement": "Tmax", "setting": "[1]; 1.5 mg, intraduodenal, 1.5 mg zanamivir mixed with Capmul MCM L8", "result": 5, "unit": "min"}, {"measurement": "Tmax", "setting": "[1]; [10]", "result": 60, "unit": "min"}, {"measurement": "Tmax", "setting": "[1]; [11]", "result": 34.8, "unit": "min"}, {"measurement": "Tmax", "setting": "[1]; [12]", "result": 4.8, "unit": "min"}, {"measurement": "Tmax", "setting": "[1]; [13]", "result": 30, "unit": "min"}, {"measurement": "Tmax", "setting": "[1]; [14]", "result": 30, "unit": "min"}, {"measurement": "Cmax", "setting": "[1]; 1.5 mg/animal, intraduodenal, 50 µL vehicle Capmul MCM L8", "result": "> 7200", "unit": "ng/mL"}, {"measurement": "Cmax", "setting": "[1]; [16]", "result": 7000, "unit": "ng/mL"}, {"measurement": "Tmax", "setting": "[1]; [16]", "result": 8.4, "unit": "min"}, {"measurement": "bioavailability", "setting": "[1]; [10]", "result": 0.66, "unit": "%"}, {"measurement": "bioavailability", "setting": "[1]; [11]", "result": 1.1, "unit": "%"}, {"measurement": "bioavailability", "setting": "[1]; [12]", "result": 37.7, "unit": "%"}, {"measurement": "bioavailability", "setting": "[1]; [13]", "result": 1.59, "unit": "%"}, {"measurement": "bioavailability", "setting": "[1]; [14]", "result": 7.53, "unit": "%"}, {"measurement": "Oral bioavailability", "setting": "[2]", "result": "under 2%"}, {"measurement": "Increase in apparent permeability coefficient (Papp) compared to no-enhancer control", "setting": "[3]; 0.25% Capmul MCM L8, pH 7.4", "result": "> 5 fold and 5.2 fold"}, {"measurement": "Increase in apparent permeability coefficient (Papp) compared to no-enhancer control", "setting": "[3]; 5% glycerol, pH 7.4", "result": "> 5 fold and 5.6 fold"}]}
